Data as given in patent US20110217265A1, “Screening for Inhibitors of HCV Amphipathic Helix (AH) Function” (priority 2008, published 2011).

Assays:
2a HCV RNA replicon = 2a HCV RNA replicon assay (FL-J6/JFH-5'C19Rluc2AUbi, luciferase); format: cell-based, Hepatitis C Virus genotype 2a; details: Hepatitis C virus, read-out: 2a (%) Percent of virus activity remaining in the presence of the compound
Source text: Plasmids. Bart79I, a high-efficiency subgenomic replicon of HCV (28), harbors the neomycin resistance gene (neo) and the HCV nonstructural proteins. The Bart-Luciferase plasmid, Bart79I-luc, was cloned from the Bart791 parent (29) and the pGL3-Basic parent (Promega). In brief, a NotI site was introduced after the 15th amino acid of Core in Bart791 using PCR mutagenesis. The plasmid pcDNA3.1-NS4B, which encodes the Con1 NS4B sequence and was used to study the protein stability of the wild type and mutant NS4Bs, was described previously. To introduce the M2 mutation into the 4BAH2 of plasmids encoding HCV replicons or NS4B, the nucleotide sequence GCG that encodes for alanine at NS4B amino acid position 51 was changed to GAG (encoding for glutamate) and the nucleotide sequence TGG that encodes for tryptophan at amino acid position 55 was changed to GAT (encoding for aspartate) through the use of Quick-ChangeTMXL site-directed mutagenesis kit (Stratagene, La Jolla, Calif.) as described by the manufacturer and confirmed by sequencing. FL-J6/JFH-5′C19Rluc2AUbi, which is a monocistronic, full-length HCV genome that expresses Renilla luciferase (Rluc) and was derived from the previously described infectious genotype 2a HCV genome J6/JFH1.
(§1) Antiviral Assays of Compounds. Subconfluent Huh7.5 cells were trypsinized and collected by centrifugation at 700 g for 5 min. The cells were then washed three times in ice-cold RNasefree PBS buffer (BioWhittaker) and resuspended at 1.5×10^7 cells·ml^−1 in PBS buffer. Wild-type FL-J6/JFH-5′C19Rluc2AUbi and Bart79I-luc RNAs for electroporation were generated by in vitro transcription of XbaI (FL-J6/JFH-5′C19Rluc2AUbi) and ScaI (Bart791-luc)-linearized DNA templates using the T7 MEGAscript kit (Ambion), followed by phenol-chloroform purification and DEPC water suspension, 5 μg of RNA were mixed with 400 μl of washed Huh7.5 cells in a 2-mm-gap cuvette (BTX) and immediately pulsed (0.82 kV (FL-J6/JFH-5′C19Rluc2AUbi) and 0.68 kV (Bart79I-luc), five […] pulses) with a BTX-830 electroporator. After 10 min recovery at 25° C., pulsed cells were diluted into 20 ml of pre-warmed growth medium. Cells from several electroporations were pooled to a common stock and seeded in 96-well plates (17,000-20,000 cells per well). After 24 hr, compounds were added to the cells and media changes were performed daily with fresh compounds. After 72 hr of treatment, cells were incubated for 2 hr at 37° C. in the presence of 10% Alamar Blue reagent (TREK Diagnostic Systems) to assess for cytotoxicity. Plates were then scanned and fluorescence was detected by using a FLEXstation II 384 (Molecular Devices). The signal was normalized relative to untreated samples. Viral RNA replication was determined using Renilla (FL-J6/JFH-5′C19Rluc2AUbi) or firefly (Bart791-luc) luciferase assays, according to the manufacturer's (Promega) directions. The same samples subjected to the viability assay described below were analyzed in this assay. According to the manufacturer protocol, cells were washed with PBS buffer and shaken at room temperature for 15 min in 20 μl of lysis buffer. Reporter assays were performed directly in the wells of the culture plates by injecting 100 μl of the assay substrate into each well. Luminescence was measured over 10 seconds with a 2-second delay using a Berthold LB 96 V luminometer. Signal was normalized relative to untreated samples or samples grown in the presence of the corresponding concentration of DMSO. Experiments were repeated three times, each time with 4 replicates.

Huh7.5 cells = test: Alamar Blue cell viability assay; format: cell-based, human
Description: as §1, with “Plates were then scanned and fluorescence was detected by using a FLEXstation II 384 (Molecular Devices).” left out

HCV 1b RNA replicon = test: 1b HCV RNA replicon assay, Huh7 cell line with stable luciferase reporter; format: cell-based, Hepatitis C Virus genotype 1b; details: Huh7, stable LUC reporter; for IC50: Hepatitis C virus, Huh-7

| Structure (SMILES) | activity at 5 µM (2a HCV RNA replicon) [%] | activity at 10 µM (2a HCV RNA replicon) [%] | Cell Viability (%), alamar blue (Huh7.5 cells; 5 μM) [%] | Cell Viability (%), alamar blue (Huh7.5 cells; 10 μM) [%] | 1b assay IC50 (HCV 1b RNA replicon) | IC50 (HCV 1b RNA replicon) [µM] |
| --- | --- | --- | --- | --- | --- | --- |
| CC(C)CN(C)c1nc(N)c(C(=O)NCc2ccccc2)nc1Cl [ID 292, 3-amino-N-benzyl-6-chloro-5-(isobutyl(methyl)amino)pyrazine-2-carboxamide 2,2,2-trifluoroacetate] | 39 | 25 | 80 | 62 | inactive | – |
| Cc1cc(Cl)ncc1NC(=O)c1nc(Cl)c(N(C)CC(C)C)nc1N [ID 293, 3-amino-6-chloro-N-(6-chloro-4-methylpyridin-3-yl)-5-(isobutyl(methyl)amino)pyrazine-2-carboxamide bis(2,2,2-trifluoroacetate)] | 34 | 28 | 71 | 66 | inactive | – |
| CC(C)CN(C)c1nc(N)c(C(=O)NC2CCCCC2)nc1Cl.O=C(O)C(F)(F)F [ID 313, 3-amino-6-chloro-N-cyclohexyl-5-(isobutyl(methyl)amino)pyrazine-2-carboxamide 2,2,2-trifluoroacetate] | 33 | 12 | 68 | 48 | – | > 25 |
| CC(C)CN(C)c1nc(N)c(C(=O)NC2CCNCC2)nc1Cl.O=C(O)C(F)(F)F [ID 319, 3-amino-6-chloro-5-(isobutyl(methyl)amino)-N-(piperidin-4-yl)pyrazine-2-carboxamide 2,2,2-trifluoroacetate] | 37 | 11 | 87 | 75 | – | 6.9 |
| CC(C)CN(C)c1nc(N)c(C(=O)NCC2CCCCC2)nc1Cl.O=C(O)C(F)(F)F [ID 320, 3-amino-6-chloro-N-(cyclohexylmethyl)-5-(isobutyl(methyl)amino)pyrazine-2-carboxamide 2,2,2-trifluoroacetate] | 37 | 17 | 80 | 59 | inactive | – |
| CC(C)CN(C)c1nc(N)c(C(=O)NCc2cccnc2)nc1Cl.O=C(O)C(F)(F)F [ID 341, 3-amino-6-chloro-5-(isobutyl(methyl)amino)-N-(pyridin-3-ylmethyl)pyrazine-2-carboxamide 2,2,2-trifluoroacetate] | 30 | 15 | 77 | 65 | inactive | – |
| CC(C)CN(C)c1nc(N)c(C(=O)NCc2ccncc2)nc1Cl.O=C(O)C(F)(F)F [ID 342, 3-amino-6-chloro-5-(isobutyl(methyl)amino)-N-(pyridin-4-ylmethyl)pyrazine-2-carboxamide 2,2,2-trifluoroacetate] | 22 | 12 | 69 | 56 | inactive | – |
| Cc1ccncc1NC(=O)c1cnc(N(C)CC(C)C)cn1 [ID 414, 5-(isobutyl(methyl)amino)-N-(4-methylpyridin-3-yl)pyrazine-2-carboxamide 2,2,2-trifluoroacetate] | 60 | 53 | 100 | 90 | – | – |
| Cc1ccncc1NC(=O)c1nc(Cl)c(N2CCOCC2)nc1N [ID 419, 3-amino-6-chloro-N-(4-methylpyridin-3-yl)-5-morpholinopyrazine-2-carboxamide 2,2,2-trifluoroacetate] | 75 | 51 | 95 | 77 | – | – |
| Cc1ccncc1NC(=O)c1nc(Cl)c(N2CCCC2)nc1N [ID 420, 3-amino-6-chloro-N-(4-methylpyridin-3-yl)-5-(pyrrolidin-1-yl)pyrazine-2-carboxamide 2,2,2-trifluoroacetate] | 52 | 49 | 73 | 72 | – | – |
| Cc1ccncc1NC(=O)c1nc(Cl)c(N(C)Cc2ccccc2)nc1N [ID 424, 3-amino-5-(benzyl(methyl)amino)-6-chloro-N-(4-methylpyridin-3-yl)pyrazine-2-carboxamide 2,2,2-trifluoroacetate] | 70 | 39 | 98 | 78 | – | – |
| Cc1ccncc1NC(=O)c1cnc(N(C)C(C)C)cn1 [ID 459, 5-(isopropyl(methyl)amino)-N-(4-methylpyridin-3-yl)pyrazine-2-carboxamide 2,2,2-trifluoroacetate] | 22 | 11 | 64 | 65 | – | – |
| CCN(CC)c1nc(N)c(C(=O)Nc2cnccc2C)nc1Cl [ID 460, 3-amino-6-chloro-5-(diethylamino)-N-(4-methylpyridin-3-yl)pyrazine-2-carboxamide 2,2,2-trifluoroacetate] | 45 | 22 | 85 | 73 | – | – |
| CCN(C)c1nc(N)c(C(=O)Nc2cnccc2C)nc1Cl [ID 469, 3-amino-6-chloro-5-(ethyl(methyl)amino)-N-(4-methylpyridin-3-yl)pyrazine-2-carboxamide 2,2,2-trifluoroacetate] | 65 | 42 | 75 | 71 | – | – |
| Cc1ccncc1NC(=O)c1cnc(N(C)CC(C)C)c(Cl)n1 [ID 473, 6-chloro-5-(isobutyl(methyl)amino)-N-(4-methylpyridin-3-yl)pyrazine-2-carboxamide 2,2,2-trifluoroacetate] | 87 | 73 | 94 | 95 | – | – |
